Test results reported in patent US10987349B2, “Antitumor agent and bromodomain inhibitor” (FUJIFILM Corporation, priority 2016, dated 2021).

Columns and labels:
BRD3 BD1 = molecular target: T1, BRD3 BD1 (Homo sapiens, UniProt Q15059); assay: Binding assay, BRD3 BD1 to acetylated histone H4 Peptide-Biotin (EPIgeneous Binding Domain Kit A); settings: test compound at 300 nmol/L; read-out: Binding inhibition percentage BRD3 BD1
T1 construct: BRD2 BD1, BRD3 BD1 and BRD4 BD1 (Cisbio); purchased Cisbio
Procedure: (§1) BRD2 BD1, BRD3 BD1 and BRD4 BD1 (Cisbio), [Lys(Ac)5/8/12/16]-Histone H4(1-25)-GSGSK (Biotin) (hereinafter referred to as “Peptide-Biotin,” AnaSpec), and EPIgeneous (registered trademark) Binding Domain Kit A (Cisbio) were used to carry out an assay. That is to say, per well, 4 μL of BRD2 BD1, BRD3 BD1 or BRD4 BD1, which was adjusted to 20 nmol/L with Diluent buffer; 4 μL of 25 nmol/L Peptide-Biotin; 2 μL of Dilution buffer (Cisbio) containing dimethyl sulfoxide (DMSO) or a test compound that was serially diluted with DMSO; 5 μL of 2.5 nmol/L Streptavidin-d2; and 5 μL of Anti-Gst-Eu+^3+ Cryptate Conjugate 50-fold diluted with Detection Buffer were added to a 384-well plate (Corning).
(§2) The obtained mixture was left at rest at room temperature for 20 hours, and thereafter, the fluoresence intensity at 665 nm and 620 nm was measured using Envision plate reader (Perkin Elmer), so that the inhibition percentage (%) of the test compound against the binding of a bromodomain in a bromodomain-containing protein to Peptide-Biotin was calculated. Binding inhibition percentage (%)=[1−{(fluorescence intensity at 665 nm of test compound−added well)/(fluorescence intensity at 620 nm of test compound−added well)}/{(fluorescence intensity at 665 nm of DMSO−added well)/(fluorescence intensity at 665 nm of DMSO−added well)}]×100
(§3) Moreover, using Graphpad prism 5 (GraphPad software), 50% inhibitory concentration [IC50 (nmol/L)] was calculated according to a non-linear regression analysis (log (inhibitor) vs. response—Variable slope (four parameters)).
(§4) Regarding other test compounds, each compound was diluted with DMSO to a final concentration of 300 nmol/L by the same method as that described above, and the binding inhibition percentage (%) of each test compound at 300 nmol/L against the binding of bromodomain in a bromodomain-containing protein to acetylated histone was calculated.

BRD4 BD1 = molecular target: T2, BRD4 BD1 (Homo sapiens, UniProt O60885); assay: Binding assay, BRD4 BD1 to acetylated histone H4 Peptide-Biotin (EPIgeneous Binding Domain Kit A); settings: test compound at 300 nmol/L; read-out: Binding inhibition percentage BRD4 BD1
T2 construct: BRD2 BD1, BRD3 BD1 and BRD4 BD1 (Cisbio); purchased Cisbio
Procedure: as §1, §2, §3, §4

BRD3 BD2 = molecular target: T3, BRD3 BD2 (Homo sapiens, UniProt Q15059); assay: Binding assay, BRD3 BD2 to acetylated histone H4 Peptide-Biotin (EPIgeneous Binding Domain Kit B); settings: test compound at 300 nmol/L; read-out: Binding inhibition percentage BRD3 BD2
T3 construct: BRD2 BD2, BRD3 BD2 and BRD4 BD2 (Cisbio); purchased Cisbio
Procedure: (§5) Moreover, BRD2 BD2, BRD3 BD2 and BRD4 BD2 (Cisbio), Peptide-Biotin (AnaSpec), and EPIgeneous (registered trademark) Binding Domain Kit B (Cisbio) were used to carry out an assay. That is, per well, 4 μL of BRD2 BD2, BRD3 BD2 or BRD4 BD2, which was adjusted to 20 nmol/L with Diluent buffer; 4 μL of 250 nmol/L Peptide-Biotin; 2 μL of Dilution buffer (Cisbio) containing DMSO or a test compound that was serially diluted with DMSO; 5 μL of 25 nmol/L Streptavidin-XL665; 5 μL of Anti-Gst-Eu+^3+ Cryptate Conjugate 50-fold diluted with Detection Buffer were added to a 384-well plate (Corning).
as §2, §3, §4

BRD2 BD1 = molecular target: T4, BRD2 BD1 (Homo sapiens, UniProt P25440); assay: Binding assay, BRD2 BD1 to acetylated histone H4 Peptide-Biotin (EPIgeneous Binding Domain Kit A); settings: test compound at 300 nmol/L; read-out: Binding inhibition percentage BRD2 BD1
T4 construct: BRD2 BD1, BRD3 BD1 and BRD4 BD1 (Cisbio); purchased Cisbio
Procedure: as §1, §2, §3, §4

BRD4 BD2 = molecular target: T5, BRD4 BD2 (Homo sapiens, UniProt O60885); assay: Binding assay, BRD4 BD2 to acetylated histone H4 Peptide-Biotin (EPIgeneous Binding Domain Kit B); settings: test compound at 300 nmol/L; read-out: Binding inhibition percentage BRD4 BD2
T5 construct: BRD2 BD2, BRD3 BD2 and BRD4 BD2 (Cisbio); purchased Cisbio
Procedure: as §5, §2, §3, §4

BRD2 BD2 = molecular target: T6, BRD2 BD2 (Homo sapiens, UniProt P25440); assay: Binding assay, BRD2 BD2 to acetylated histone H4 Peptide-Biotin (EPIgeneous Binding Domain Kit B); settings: test compound at 300 nmol/L; read-out: Binding inhibition percentage BRD2 BD2
T6 construct: BRD2 BD2, BRD3 BD2 and BRD4 BD2 (Cisbio); purchased Cisbio
Procedure: as §5, §2, §3, §4

T6 sequence (P25440 344-453 limits assumed): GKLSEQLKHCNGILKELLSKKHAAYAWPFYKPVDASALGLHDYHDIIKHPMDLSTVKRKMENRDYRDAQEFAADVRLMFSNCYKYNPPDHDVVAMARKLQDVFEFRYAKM
T1 sequence (Q15059 34-140 limits assumed): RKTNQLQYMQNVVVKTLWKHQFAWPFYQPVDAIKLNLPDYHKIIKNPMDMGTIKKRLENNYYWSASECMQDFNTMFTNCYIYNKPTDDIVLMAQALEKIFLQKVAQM
T4 sequence (P25440 74-180 limits assumed): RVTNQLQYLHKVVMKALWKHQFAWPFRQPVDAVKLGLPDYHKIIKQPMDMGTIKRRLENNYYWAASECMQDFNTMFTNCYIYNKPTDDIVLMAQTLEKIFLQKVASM
T3 sequence (Q15059 306-415 limits assumed): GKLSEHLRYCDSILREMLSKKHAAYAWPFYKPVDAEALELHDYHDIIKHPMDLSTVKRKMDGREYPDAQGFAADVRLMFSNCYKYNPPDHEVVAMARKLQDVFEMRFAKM

Compound | inhibition at 0.3 µM (BRD3 BD1) | inhibition at 0.3 µM (BRD4 BD1) | inhibition at 0.3 µM (BRD3 BD2) | inhibition at 0.3 µM (BRD2 BD1) | inhibition at 0.3 µM (BRD4 BD2) | inhibition at 0.3 µM (BRD2 BD2)
CCn1c(=O)cc(N2CCOCC2)c2cc(-n3c(-c4ccc(C(F)(F)F)cc4)c[nH]c3=O)ccc21 [Example 272, 1-ethyl-6-(2-oxo-5-(4-(trifluoromethyl)phenyl)-2,3-dihydro-1H-imidazol-1-yl)-4-(morpholin-4-yl)quinolin-2(1H)-one] | 93% | 93% | 91% | 87% | 90% | 89%
CCn1c(=O)cc(N2CCOCC2)c2cc(-n3c(-c4ccccc4)cn(CCN4CCOCC4)c3=O)ccc21 [Example 260] | 93% | 94% | 91% | 88% | 88% | 87%
CCn1c(=O)cc(C2CCN(CCO)CC2)c2cc(C(=O)N(C)c3ccc4c(c3)CCCC4)ccc21 [Example 179, 1-ethyl-4-(1-(2-hydroxyethyl)piperidin-4-yl)-N-methyl-2-oxo-N-(5,6,7,8-tetrahydronaphthalen-2-yl)-1,2-dihydroquinoline-6-carboxamide] | 94% | 95% | 92% | 93% | 88% | 88%
CCn1c(=O)cc(C2CC2)c2cc(-n3c(-c4ccc(Cl)cc4)c[nH]c3=O)ccc21 [Example 271, 6-(5-(4-chlorophenyl)-2-oxo-2,3-dihydro-1H-imidazol-1-yl)-4-cyclopropyl-1-ethylquinolin-2(1H)-one] | 72% | 77% | 92% | 60% | 88% | 88%
CCn1c(=O)cc(N2CCOCC2)c2cc(-n3c(-c4ccccc4)c[nH]c3=O)ccc21 [Example 3, 1-ethyl-4-(morpholin-4-yl)-6-(2-oxo-5-phenyl-2,3-dihydro-1H-imidazol-1-yl)quinolin-2(1H)-one] | 94% | 94% | 91% | 91% | 89% | 89%
CCn1c(=O)cc(C2CCN(CCO)CC2)c2cc(C(=O)N(C)c3ccc4c(c3)CCCCC4)ccc21 [Example 191] | 95% | 94% | 92% | 94% | 88% | 87%
